Reference: US4073903A, “3-Desacetoxymethyl-3- 5'(1-methyltetrazolyl)thio!methyl-7- 1-(4-nitr oimidazolyl)acetyl!aminocephalosporanic acid” (Pierrel S.p.A., priority 1975, dated 1978)
In brackets after ≈: the same amount, converted by molar mass. Structures can show the parent of a compound that is named as a salt. Where two headings read alike, the source gives them in different places.

Legend:
Solubility = type: physicochemical; details: sodium salt; water
Stability as a solid = type: physicochemical
Salmonella wien = assay: MIC against Ampicillin-resistant clinical isolates, broth dilution test (Table IV); details: Salmonella enterica, 24 h
Escherichia coli [1] = assay: Treatment of mice systemically infected with Escherichia coli (Table V); details: in Mus musculus, 168 h, read-out: ED50 per treatment
Salmonella essen = assay: MIC against Ampicillin-resistant clinical isolates, broth dilution test (Table IV); details: Salmonella enterica, 24 h, read-out: Minimun inhibitory concentration (MIC)
Klebsiella pneumoniae [2] = assay: MIC against clinical isolates, broth dilution test (Table II); details: Klebsiella pneumoniae, 24 h
Klebsiella pneumoniae [3] = details: in Mus musculus, 168 h, read-out: ED50 per treatment
Escherichia coli [4] = assay: MIC against clinical isolates, broth dilution test (Table III); details: Escherichia coli, 24 h
Salmonella heidelberg = assay: MIC against Ampicillin-resistant clinical isolates, broth dilution test (Table IV); details: Salmonella enterica, 24 h, read-out: Minimun inhibitory concentration (MIC)

Cn1nnnc1SCC1=C(C(=O)O)N2C(=O)C(NC(=O)Cn3cnc([N+](=O)[O-])c3)C2SC1 (stereo not drawn) [sodium salt]
solubility (Solubility): ~500 mg/mL | Stability (Stability as a solid): stable as a solid

Cc1nnc(SCC2=C(C(=O)O)N3C(=O)[C@@H](NC(=O)Cn4cnnn4)[C@H]3SC2)s1 [Cefazolin, reference compound]
MIC (Salmonella wien; read-out: Minimun inhibitory concentration (MIC), Ampicillin-resistant clinical isolate LRP 138): 25 µg/mL (≈ 55 µM) | MIC (Salmonella wien; read-out: Minimun inhibitory concentration (MIC), Ampicillin-resistant clinical isolate LRP 140): 50 µg/mL (≈ 110 µM) | MIC (Salmonella wien; read-out: Minimun inhibitory concentration (MIC), Ampicillin-resistant clinical isolate LRP 141): 100 µg/mL (≈ 220 µM) | ED50 (Escherichia coli [1]): 35 mg/kg | MIC (Salmonella essen): 6.25 µg/mL (≈ 13.8 µM) | MIC (Klebsiella pneumoniae [2]; read-out: Minimum inhibitory concentration (MIC), clinical isolate LRP 128): 25 µg/mL (≈ 55 µM) | MIC (Klebsiella pneumoniae [2]; read-out: Minimum inhibitory concentration (MIC), clinical isolate LRP 129): 3.12 µg/mL (≈ 6.86 µM) | MIC (Klebsiella pneumoniae [2]; read-out: Minimum inhibitory concentration (MIC), clinical isolate LRP 130): 25 µg/mL (≈ 55 µM) | MIC (Klebsiella pneumoniae [2]; read-out: Minimum inhibitory concentration (MIC), clinical isolate LRP 131): 25 µg/mL (≈ 55 µM) | MIC (Klebsiella pneumoniae [2]; read-out: Minimum inhibitory concentration (MIC), clinical isolate LRP 132): 1.56 µg/mL (≈ 3.43 µM) | MIC (Klebsiella pneumoniae [2]; read-out: Minimum inhibitory concentration (MIC), clinical isolate LRP 133): 1.56 µg/mL (≈ 3.43 µM) | MIC (Klebsiella pneumoniae [2]; read-out: Minimum inhibitory concentration (MIC), clinical isolate LRP 134): 3.12 µg/mL (≈ 6.86 µM) | MIC (Klebsiella pneumoniae [2]; read-out: Minimum inhibitory concentration (MIC), clinical isolate LRP 135): 25 µg/mL (≈ 55 µM) | MIC (Klebsiella pneumoniae [2]; read-out: Minimum inhibitory concentration (MIC), clinical isolate LRP 136): 50 µg/mL (≈ 110 µM) | MIC (Klebsiella pneumoniae [2]; read-out: Minimum inhibitory concentration (MIC), clinical isolate LRP 137): 0.25 µg/mL (≈ 0.55 µM) | ED50 (Klebsiella pneumoniae [3]): 90 mg/kg | MIC (Escherichia coli [4]; read-out: Minimum inhibitory concentration (MIC), clinical isolate LRP 87): 25 µg/mL (≈ 55 µM) | MIC (Escherichia coli [4]; read-out: Minimum inhibitory concentration (MIC), clinical isolate LRP 94): 6.25 µg/mL (≈ 13.8 µM) | MIC (Escherichia coli [4]; read-out: Minimum inhibitory concentration (MIC), clinical isolate LRP 96): 6.25 µg/mL (≈ 13.8 µM) | MIC (Escherichia coli [4]; read-out: Minimum inhibitory concentration (MIC), clinical isolate LRP 110): 6.25 µg/mL (≈ 13.8 µM) | MIC (Escherichia coli [4]; read-out: Minimum inhibitory concentration (MIC), clinical isolate LRP 143): 1.56 µg/mL (≈ 3.43 µM) | MIC (Escherichia coli [4]; read-out: Minimum inhibitory concentration (MIC), clinical isolate LRP 150): 12.5 µg/mL (≈ 27.5 µM) | MIC (Escherichia coli [4]; read-out: Minimum inhibitory concentration (MIC), clinical isolate LRP 151): 12.5 µg/mL (≈ 27.5 µM) | MIC (Escherichia coli [4]; read-out: Minimum inhibitory concentration (MIC), clinical isolate LRP 152): 100 µg/mL (≈ 220 µM) | MIC (Escherichia coli [4]; read-out: Minimum inhibitory concentration (MIC), clinical isolate LRP 154): 3.12 µg/mL (≈ 6.86 µM) | MIC (Escherichia coli [4]; read-out: Minimum inhibitory concentration (MIC), clinical isolate LRP 155): 1.56 µg/mL (≈ 3.43 µM) | MIC (Escherichia coli [4]; read-out: Minimum inhibitory concentration (MIC), clinical isolate LRP 156): 6.25 µg/mL (≈ 13.8 µM) | MIC (Escherichia coli [4]; read-out: Minimum inhibitory concentration (MIC), clinical isolate LRP 158): 25 µg/mL (≈ 55 µM) | MIC (Escherichia coli [4]; read-out: Minimum inhibitory concentration (MIC), clinical isolate LRP 159): 1.56 µg/mL (≈ 3.43 µM) | MIC (Escherichia coli [4]; read-out: Minimum inhibitory concentration (MIC), clinical isolate LRP 163): 3.12 µg/mL (≈ 6.86 µM) | MIC (Salmonella heidelberg): 12.5 µg/mL (≈ 27.5 µM)
